Measurements: PMC10892719 (Pharmaceutics, 2024)

Columns and labels:
[1] = target: T1, electric eel acetylcholinesterase (eeAChE) (Electrophorus electricus, UniProt O42275); assay: AChE inhibition, adapted Ellman method; format: biochemical; conditions: mean of two independent experiments ± SD, read-out: AChE Inhib IC50
T1 construct: purchased Sigma-Aldrich (Steinheim, Germany)
Procedure: The enzyme inhibition of electric eel acetylcholinesterase (eeAChE) and equine butyrylcholinesterase (eqBChE) by our compounds was evaluated through an adaptation of Elmman´s method using reagents from Sigma-Aldrich (Steinheim, Germany). Stock solutions of each compound (1 mg) in MeOH (1 mL) were prepared and then working solutions for each ligand were obtained by the corresponding dilution of the stock solutions. A control measurement with 5 replicates (without ligand) and a calibration curve of 5 points with 3 replicates per point was performed. The preparation of each solution involved fixed volumes of 4-(2-hydroxyethyl)-1-piperazine-ethanesulfonic acid (HEPES) and cholinesterase (eeAChE or eqBChE) with different volumes of ligand solution, and it was left to rest for 15 min immediately after adding the cholinesterase. A blank solution containing HEPES and MeOH was also prepared at the same time. […] The slope for each calibration point (absorbance versus reaction time) was determined and the inhibition for each compound was calculated by using the following equation: %Inhibition=100−(vi/v0×100) where vi is the reaction rate (slope) for each point of the calibrate with ligand and v0 is the initial reaction rate (slope) for the control point (without ligand). […] Experiments were performed twice for each compound.

SH-SY5Y cells = assay: Neuroprotection against Aβ1-42-induced toxicity, MTT; format: cell-based, human; conditions: Aβ1-42 1 µM, 24 h, optimized concentration of each compound
Procedure: Cell viability, following treatment with the compounds, was determined using the colorimetric MTT (3-(4,5-dimethylthiazol-2-yl)-2,5-diphenyltetrazolium bromide) assay. The tested compounds (5a1-3, 5b1-3, 5c1-3) were dissolved in DMSO to produce stock solutions of 25 mM and stored at −20 °C. A concentration screening was performed for 0.5 µM to 20 µM final concentrations to choose the highest nontoxic concentration. SH-SY5Y human neuroblastoma cell line (ATCC-CRL-2266) was cultured in Dulbecco’s modified Eagle’s medium (DMEM) (Gibco-Invitrogen, Life Technologies Ltd., Waltham, MA, USA) with heat-inactivated fetal calf serum (10%), penicillin (50 U/mL) and streptomycin (50 µg/mL) at 37 °C with 5% CO2. Cells were plated at 0.15 × 10^6 cells/mL one day prior to the start of the experiment. The cells were then incubated with the appropriate concentration of the compounds for 24 h. After the incubation period, the cells were washed once with PBS and incubated with 200 µL MTT (0.5 mg/mL) for 2 h at 37 °C with 5% CO2. During this period, cellular dehydrogenase successfully metabolized MTT into formazan, which was then solubilized using 200 µL of 0.04 M HCl/isopropanol. Absorbance was measured at 570 nm.
To test whether the compounds have a protective effect against toxicity induced by Aβ1-42 or iron/ascorbate, the cells were pre-incubated for 1 h with each compound, followed by the addition of Aβ1-42 or iron/ascorbate and incubation for an additional 24 h. Aβ1-42 (Bachem, Torrance, CA, USA) was prepared in sterile water to produce a stock solution of 443 µM and added to the cells at a final concentration of 1 µM. Ferrous sulfate and L-ascorbic acid (Sigma Chemical Co, St. Louis, MO, USA), prepared in sterile water, were added to the medium together at a final concentration of 5 mM and 2.5 mM, respectively. For this assay, the optimal concentration of each compound was used to prevent cellular demise induced by Aβ1-42 or iron/ascorbate. Compound 5a1 was added to the medium at a 1 µM final concentration; compounds 5a2, 5a3, 5b1, 5b2 and 5c2 were added to the medium at a 2.5 µM final concentration; compounds 5c1 and 5c3 were added to the medium at a 5 µM final concentration; and compound 5b3 was added to the medium at a 10 µM final concentration. […] Controls were employed for each plate using untreated cells and Aβ1-42 or iron/ascorbate only. Cell reduction ability was normalized to the untreated condition. All data are expressed as mean ± SEM of at least three independent experiments performed in duplicate. Statistical analyses were performed for normality assessment using Shapiro–Wilk’s test followed by the Kruskal–Wallis test considering that normality was not verified. Post hoc analysis was performed using uncorrected Dunn’s test. A p value < 0.05 was considered statistically significant.
Figure 4 Neuroprotective effect of RIV-IND compounds against cellular toxicity induced by Aβ1-42 measured by MTT reduction ability on SH-SY5Y cells pretreated with […] for one hour, followed by a 24 h incubation with the optimized concentration of each compound. Results are expressed relatively to untreated cells, with the mean ± standard error of the mean (SEM) derived from three to seven independent experiments. * p < 0.05; ** p < 0.01; *** p < 0.001; **** p < 0.0001 compared to untreated cells. # p < 0.05 compared to Aβ1-42-treated cells. (The dot line indicates the decrease in cellular viability induced by Aβ).

[2] = DPPH free radical scavenging (antioxidant) assay; conditions: read-out: Antioxidant Activity EC50; DPPH method, mean of three independent experiments
Procedure: The radical scavenging activity (antioxidant capacity) of the herein-developed RIV-IND hybrids was determined by the DPPH method [33]. Working solutions of the compounds in 10% DMSO/MeOH (, HoneywellSeelze, Germany) medium were used to prepare 5 methanolic solutions (5 points, 3 replicates) containing DPPH (Sigma-Aldrich, Steinheim, Germany) and different concentrations of compound up to 3.5 mL total volume. […] The respective antioxidant activity (%AA) was calculated using the following equation: %AA=ADPPH−Aligand/ADPPH×100
The reported results were obtained as the mean values of three independent experiments.
The new RIV-IND compounds were also screened for their radical scavenging activity (EC50), according to the 2,2-diphenyl-1-picrylhydrazyl (DPPH) free radical method.

T1 sequence (O42275 24-633): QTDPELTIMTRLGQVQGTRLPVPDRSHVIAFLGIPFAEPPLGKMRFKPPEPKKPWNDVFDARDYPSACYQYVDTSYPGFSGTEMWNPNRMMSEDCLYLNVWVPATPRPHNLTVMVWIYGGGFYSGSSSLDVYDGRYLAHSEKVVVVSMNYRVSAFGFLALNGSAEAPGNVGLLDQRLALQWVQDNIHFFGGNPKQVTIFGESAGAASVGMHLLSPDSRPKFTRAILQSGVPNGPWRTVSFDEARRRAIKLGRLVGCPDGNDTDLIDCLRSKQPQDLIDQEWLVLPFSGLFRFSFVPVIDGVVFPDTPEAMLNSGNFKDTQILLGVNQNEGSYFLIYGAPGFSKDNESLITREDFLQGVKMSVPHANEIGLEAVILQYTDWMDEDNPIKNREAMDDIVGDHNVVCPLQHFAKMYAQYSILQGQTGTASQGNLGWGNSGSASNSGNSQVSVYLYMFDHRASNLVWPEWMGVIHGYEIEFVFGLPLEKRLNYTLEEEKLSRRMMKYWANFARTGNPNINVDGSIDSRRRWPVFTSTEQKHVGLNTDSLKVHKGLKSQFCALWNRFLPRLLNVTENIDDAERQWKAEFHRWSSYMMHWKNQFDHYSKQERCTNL

| SMILES | IC50 [1] [µM] | neuroprotective effect against toxicity induced by Aβ1-42 (SH-SY5Y cells) | EC50 [2] [µM] |
| --- | --- | --- | --- |
| CCN(C)C(=O)Oc1cccc(NC(=O)c2cc3cccc(O)c3[nH]2)c1 [Compound 5a3, 3-(7-Hydroxy-1H-indole-2-carboxamido)phenyl ethyl(methyl)carbamate] | 10.9 ± 0.1 | also present neuroprotection | 14.5 ± 0.5 |
| CCN(C)C(=O)Oc1cccc(CNC(=O)c2cc3ccccc3[nH]2)c1 [Compound 5b1, 3-((1H-indole-2-carboxamido)methyl)phenyl ethylmethylcarbamate] | 78.4 ± 0.8 | able to rescue Aβ1-42-induced toxicity to levels that were not significantly different from untreated cells | > 2000 |
